Test results published in paper PMC7698306, “Exploring the Role of a Novel Peptide from Allomyrina dichotoma Larvae in Ameliorating Lipid Metabolism in Obesity” (International Journal of Molecular Sciences, 2020).
Where “and” joins values, the source holds several entries; their conditions need not be identical. Equal entries are not always repeated. No end group written: not given here.

Legend:
3T3-L1 cells = assay: Lipid accumulation in differentiated 3T3-L1 cells by Oil Red O staining; type: cell-based; conditions: synthesized peptides, untreated cells as control
Description: The 3T3-L1 cells were obtained from the Korean Cell Line Bank (Seoul, Korea). They were cultured and maintained in Dulbecco’s modified Eagle medium (DMEM) at 37 °C in a humidified atmosphere of 5% CO2. Additionally, 2-day post-confluent preadipocytes (designated day 0) were cultured in a 2-day differentiation medium composed of DMEM, 0.5 mM IBMX, 1 μM dexamethasone, and 5 μg/mL insulin to induce differentiation. The cells were then cultured in a DMEM containing 5 μg/mL insulin for another 2 days. The medium was replaced every 2 days until the cells had accumulated intracellular lipid droplets. Cells were seeded in 6-well plates, and adipocyte differentiation was induced for 8 days. On day 8, the cells were fixed with 10% buffered formalin and stained with Oil Red O solution for 60 min at room temperature. Images of lipid droplets in the 3T3-L1 adipocytes were captured using a Leica DMi1 microscope (Leica, Germany).

HFD-fed mice [1] = assay: Serum biochemical parameters in HFD-fed mice; type: in vivo, C57BL/6 mice; conditions: EIA10 100 mg/kg/d or orlistat 60 mg/kg/d oral for 5 weeks, mean ± SEM, n = 8
Description: (§1) Four-week-old male C57BL/6 mice were purchased from the Nara Bio Animal Center (NARA Biotech, Seoul, Korea) All experiments were approved by the Institutional Animal Care and Use Committee of Konkuk University (14 July 2019). All possible efforts were made to minimize the suffering and the animal count utilized in this study (KU19102). The mice were randomly divided into the following two groups after 1 week of acclimatization: n = 8 in the control group, fed a normal diet (Control, fat content of 10% kcal), and n = 30, fed a high-fat diet (HFD, fat content of 60% kcal). Mice were registered daily for food intake, and their body weights were assessed twice a week. After 5 weeks, mice with a body weight 20% higher than that of the control group were picked and divided randomly into three groups (n = 8/group): HFD + EIA10, 100 mg/kg/d; and HFD + orlistat, 60 mg/kg /d for 5 weeks. As a positive control, Orlistat was used. After 12 weeks, the mice were subjected to fasting overnight and sacrificed (Figure 2A). Blood samples were harvested for further analysis. Sections of epididymal adipose and liver tissues were fixed in 10% formaldehyde for histological analyses and frozen in liquid nitrogen.
Through heart puncture, blood samples were collected and serum was isolated through centrifugation (3000 rpm for 20 min) and processed before further study at −80 °C. An automated analyzer (Abaxis VETSVAN VS2 Chemistry Analyzer, Union City, CA, USA) assessed serum levels of blood urea nitrogen, alanine aminotransferase (ALT), alkaline phosphatase, aspartate aminotransferase (AST), total protein, serum albumin, and electrolytes. Using a fast blood lipid analyzer (OSANG Healthcare Lipid Pro, Anyang, Korea), total cholesterol (TC), low-density lipoprotein cholesterol (LDL), high-density lipoprotein cholesterol (HDL), and TG were calculated. Adiponectin was analyzed by Western blotting, and leptin was quantified using a leptin enzyme-linked immunosorbent assay (ELISA) kit (MERCK, DHB, Germany).

HFD-fed mice [2] = assay: Body weight, energy intake, organ and adipose tissue weights, DXA body fat in high-fat diet (HFD)-fed mice; type: in vivo, C57BL/6 mice
Description: as §1
Dual-energy X-ray absorptiometry (DXA) measurements were used to compare the body fat. DXA measurements were performed after 4 weeks of administration using a total-body scanner (InAlyzer dual X-ray absorptiometry, Medikors, Gyeonggi, Korea). Data were obtained once with low energy and once with high energy.

HFD-fed mice [3] = assay: Oral glucose tolerance test, insulin levels and insulin resistance indices in HFD-fed mice; type: in vivo, C57BL/6 mice; conditions: oral glucose 1 g/kg after 12 h fast; vs HFD group, p < 0.05; Figure 3B
Description: as §1, with “After 5 weeks, mice with a body weight 20% higher than that of the control group were picked and divided randomly into three groups (n = 8/group):” left out, “nitrogen. An oral glucose tolerance test (OGTT) to determine the clearance of a standardized glucose load was performed after 5 weeks of oral administration. Plasma glucose was determined under postabsorptive conditions with blood collected at time ‒30 and 0 and then after oral administration of 1 g/kg of glucose at 30, 60, 90, and 120 min. Using a Blood Glucose Testing System (891 Hogye-Dong Dongan-gu, Anyang, Gyeonggi-do, Korea), blood samples were measured from the tail veins. A mouse ultrasensitive insulin ELISA package (ALPCO, Salem, NH, USA) was quantified for serum insulin. The hepatic insulin resistance index (hepatic IRI) was estimated by using the validated method of Matsuda and DeFronzo [43]. Insulin resistance was assessed using the homeostasis model assessment of insulin resistance (HOMA-IR). HOMA is a mathematically derived model of glucose–insulin feedback.” for “nitrogen.”

[4] = male C57BL/6 mice on HFD, EIA10 100 mg/kg/d or orlistat 60 mg/kg/d oral for 5 weeks, mean ± SEM, n = 8

Row | Molecule | Lipid Accumulation (% of Control) (3T3-L1 cells) | also measured
1 | STELLIR [Peptide 2] | 59.04 % of Control | –
2 | KLPFQR [Peptide 1] | 57.85 % of Control | –
3 | RFQSSAVMA [Peptide 12] | 57.47 % of Control | –
4 | RIVDFHMLESR [Peptide 18] | 41.94 % of Control | –
5 | CCCCCCCCCCC[C@@H](C[C@@H]1OC(=O)[C@H]1CCCCCC)OC(=O)[C@H](CC(C)C)NC=O [Orlistat, reference compound] | – | Glucose (HFD-fed mice [1]): 160.78 ± 13.62 mg/dL; ALT (alanine aminotransferase) (HFD-fed mice [1]; serum): 44.75 ± 8.38 U/L; AST (aspartate aminotransferase) (HFD-fed mice [1]; serum): 113.88 ± 16.17 U/L; HDL (high-density lipoprotein cholesterol) (HFD-fed mice [1]; serum): 72.05 ± 4.38 mg/dL; LDL/VLDL (HFD-fed mice [1]; serum): 41.21 ± 2.59 mg/dL; TC (total cholesterol) (HFD-fed mice [1]; serum): 113.26 ± 3.40 mg/dL; TG (triglyceride) (HFD-fed mice [1]; serum): 115.52 ± 4.66 mg/dL; Total fat weight (HFD-fed mice [2]; DXA, male C57BL/6 mice on HFD, EIA10 100 mg/kg/d or orlistat 60 mg/kg/d oral, mean ± SEM, n = 8): 13.71 ± 1.09 g; food intake between different drug groups (appetite) (HFD-fed mice [2]; HFD-fed mice, EIA10 100 mg/kg/d or orlistat 60 mg/kg/d oral): No significant difference; Body weight gain (HFD-fed mice [2]; [4]): 12.56 ± 0.45 g; Epididymal adipose tissue weight (HFD-fed mice [2]; [4]): 1.90 ± 0.48 g; Final body weight (HFD-fed mice [2]; [4]): 36.11 ± 3.92 g; Initial body weight (HFD-fed mice [2]; [4]): 23.55 ± 0.07 g; Liver weight (HFD-fed mice [2]; [4]): 1.14 ± 0.12 g; Subcutaneous adipose tissue weight (HFD-fed mice [2]; [4]): 3.11 ± 0.53 g; Total energy intake (HFD-fed mice [2]; over 10 weeks, male C57BL/6 mice on HFD, EIA10 100 mg/kg/d or orlistat 60 mg/kg/d oral for 5 weeks, mean ± SEM, n = 8): 1031.35 kcal and 1031.35 ± 26.32 kcal; area under the OGTT curve (AUC) (HFD-fed mice [3]): significantly lower
6 | HLQLAIRNDEELNK [Peptide 22] | 83.11 % of Control | –
7 | AVQGLLK [Peptide 5] | 48.40 % of Control | –
8 | NKLLSGVTIA [Peptide 14] | 77.76 % of Control | –
9 | TLSDYNIQK [Peptide 13] | 68.00 % of Control | –
10 | QNIIPASTGAAK [Peptide 21] | 44.40 % of Control | –
11 | VTIAQGGVLFNIQA [Peptide 23] | 74.36 % of Control | –
12 | NDEELNKLL [Peptide 7] | 39.44 % of Control | –
13 | Ala-Glu-Arg-Val-Gly-Ala-Gly-Ala-Pro-Val-Try [Peptide 17] | 35.06 % of Control | –
14 | ALNQAWAFLK [Peptide 16] | 57.47 % of Control | –
15 | IAQGGVLP [Peptide 6] | 38.01 % of Control | –
16 | EIAQDFK [Peptide 3] | 52.20 % of Control | –
17 | SGVTIAQGGVLP [Peptide 19] | 68.00 % of Control | –
18 | HLQLAIR [Peptide 4] | 63.26 % of Control | –
